This test addresses SARS-CoV-2 nsp14 MTase (Severe acute respiratory syndrome coronavirus 2, UniProt P0DTD1). The experiment in a line: biochemical. Type of test: biochemical. To be noted: for nsp14 Inhibition % (100µM) Exp 1 / nsp14 Inhibition % (100µM) Exp 2: compound 100µM; for nsp14 Inhibition % (100µM) Exp 1: replicate experiment 1; for nsp14 Inhibition % (100µM) Exp 2: replicate experiment 2; for IC50: nsp14 MTase activity, high-throughput screening follow-up, read-out: IC50.

One may read the IC50 as the concentration at which inhibition is half-maximal. As a reminder, the inhibition is the drop in the measured response relative to a control, in per cent.

Like-named read-outs stand apart in the source and are kept apart here.

Consider `NC(CCC(=O)NC(CSCc1ccc(F)cc1)C(=O)NCC(=O)O)C(=O)O` (centres unmarked) [NSC131119], for which the “nsp14 Inhibition % (100µM) Exp 1” value worked out at 8% and the “nsp14 Inhibition % (100µM) Exp 2” value turned out to be 0%.

For `O=C(CCCCn1ccc(=O)[nH]c1=O)Nc1ccc(C(=O)O)c(O)c1` [NSC92432], the “nsp14 Inhibition % (100µM) Exp 1” value was determined as 6% and the “nsp14 Inhibition % (100µM) Exp 2” value is listed as −1%.

`O=C(NNCNNC(=O)c1ccncc1)c1ccncc1` [NSC39302]: the “nsp14 Inhibition % (100µM) Exp 1” value turned out to be 7% and the “nsp14 Inhibition % (100µM) Exp 2” value is on record as −2%.

For `O=C1C2C3C=CC(O3)C2C(=O)N1/N=C/C(O)C(O)C(O)C(O)CO` (centres unmarked) [NSC60360], the “nsp14 Inhibition % (100µM) Exp 1” value was found to be 4% and the “nsp14 Inhibition % (100µM) Exp 2” value is on record as −4%.

Regarding `O=C(O)c1nc(N=Nc2ccc(S(=O)(=O)O)cc2)[nH]c1C(=O)O` [NSC4624], the “nsp14 Inhibition % (100µM) Exp 1” value is on record as 65% and the “nsp14 Inhibition % (100µM) Exp 2” value is given as 47%.

For `O=C(O)c1cc(=O)n(CCCCCCn2c(=O)cc(C(=O)O)[nH]c2=O)c(=O)[nH]1` [NSC232469], the “nsp14 Inhibition % (100µM) Exp 1” value is 7% and the “nsp14 Inhibition % (100µM) Exp 2” value is reported as −7%.

In the case of `Nc1ncnc2c1ncn2C1OC(CO)C(NC(=O)C(N)Cc2ccccc2)C1O` (centres unmarked) [NSC114010], the “nsp14 Inhibition % (100µM) Exp 1” value was determined as 11% and the “nsp14 Inhibition % (100µM) Exp 2” value was −3%.

On to `O=S(=O)(O)c1cc(Cl)cc(N=Nc2ccc(O)cc2O)c1O` [NSC102798], for which the “nsp14 Inhibition % (100µM) Exp 1” value is reported as 77% and the “nsp14 Inhibition % (100µM) Exp 2” value stood at 74%.

In the case of `O=P(O)(O)OC1OC(n2cnc3c(NCc4ccc(F)cc4)ncnc32)C(O)C1O` (centres unmarked) [NSC330685], the “nsp14 Inhibition % (100µM) Exp 1” value turned out to be 4% and the “nsp14 Inhibition % (100µM) Exp 2” value is 2%.

Take `O=C1C=C(O)C(=C/C=C/C=C/c2c(O)cc(O)cc2O)C(O)=C1` [NSC77131]: the “nsp14 Inhibition % (100µM) Exp 1” value was 99%, the “nsp14 Inhibition % (100µM) Exp 2” value worked out at 99% and the IC50 came out at 9 µM.

Turning to `NC(CCCNc1nc(O)c(-c2ccccc2)c(=O)[nH]1)C(=O)O` (centres unmarked) [NSC132916], the “nsp14 Inhibition % (100µM) Exp 1” value is listed as −1% and the “nsp14 Inhibition % (100µM) Exp 2” value is reported as −3%.

`O=C(O)c1ccc(C(=O)c2ccc(C(=O)c3ccc(C(=O)O)cc3)cc2)cc1` [NSC2269]: the “nsp14 Inhibition % (100µM) Exp 1” value turned out to be 64%, the “nsp14 Inhibition % (100µM) Exp 2” value stood at 60% and the IC50 is 27 µM.

Regarding `CN(CC(O)C(O)C(O)C(O)CO)CN1C(=O)C(=O)c2ccccc21` (centres unmarked) [NSC99790], the “nsp14 Inhibition % (100µM) Exp 1” value is reported as 46% and the “nsp14 Inhibition % (100µM) Exp 2” value was 36%.

As to `Nc1ncnc2c1ncn2[C@H]1C[C@H](O)[C@@H](COP(=O)(O)O)O1` [NSC77680], the “nsp14 Inhibition % (100µM) Exp 1” value was 13% and the “nsp14 Inhibition % (100µM) Exp 2” value was 7%.

Turning to `COc1cc(N=Nc2ccccc2C(=O)O)cc(/C=N/NNC(N)=S)c1O` [NSC630814], the “nsp14 Inhibition % (100µM) Exp 1” value was 84% and the “nsp14 Inhibition % (100µM) Exp 2” value is recorded as 82%.

Consider `NC(CCCC(N)P(=O)(O)c1ccccc1)P(=O)(O)c1ccccc1` (centres unmarked) [NSC655184], for which the “nsp14 Inhibition % (100µM) Exp 1” value is on record as 7% and the “nsp14 Inhibition % (100µM) Exp 2” value is −11%.

With `O=C(CN1CCOCC1)C(O)C(O)C(O)CO` (centres unmarked) [NSC4348], the “nsp14 Inhibition % (100µM) Exp 1” value is 73%, the “nsp14 Inhibition % (100µM) Exp 2” value was 61% and the IC50 was 34 µM.

On to `O=C1NC(=O)C(C(=O)C(=O)Nc2cccc(C(F)(F)F)c2)C(=O)N1` [NSC646375], for which the “nsp14 Inhibition % (100µM) Exp 1” value amounted to 26% and the “nsp14 Inhibition % (100µM) Exp 2” value amounted to 20%.

Take `CC(CCc1ccc2c(c1)OCO2)NCC(O)c1ccc(O)c(C(N)=O)c1` (centres unmarked) [NSC313453]: the inhibition at 100 µM by setting is: (read-out: nsp14 Inhibition % (100µM) Exp 1) 3%; (read-out: nsp14 Inhibition % (100µM) Exp 2) -5%.
